Results reported in patent US11058673B2, “Dosage regimen of MDM2 inhibitor for treating cancers” (DAIICHI SANKYO COMPANY, LIMITED, priority 2015, dated 2021).
Read-outs that look alike come from different tables or passages of the source.

Columns and labels:
[1] = test system: advanced solid tumor or lymphoma; experiment: Phase 1 clinical study: tumor response (RECIST v1.1) and progression free survival, overall population; format: in vivo, human
Description: (§1) • 1. Has a histologically or cytologically documented advanced solid tumor or lymphoma that has relapsed from or is refractory to standard treatment, or for which no standard treatment is available. • 2. Man or woman≥18 years old. • 3. Has an Eastern Cooperative Oncology Group (ECOG) performance status 0-1. • 4. Has adequate bone marrow function, adequate renal function, adequate hepatic function, and adequate blood clotting function.
(§2) Tumor assessment Tumor assessment was performed at baseline, within every 2 cycles while the subject remained on study for the first 9 cycles and then every 3 cycles thereafter (start of Cycles 3, 5, 7, and 9, then Cycles 12, 15, etc.).
(§3) Tumor Response Response assessment was performed according to the Schedule of Events or if disease progression was suspected. Radiographic assessment included computerized tomography (CT) of all affected sites. In addition, subjects with lymphoma underwent a (^18F) fluorodeoxyglucose-positron emission tomography FDG-PET scan. Tumor responses were assessed by the physicians according to RECIST 1.1 criteria for subjects with solid tumors and revised IWG criteria for subjects with lymphoma. Descriptive statistics for the greatest percent change in the sum of longest dimensions (SLD) of measurable tumors were provided. A waterfall plot of the greatest percent change from screening in the SLD for each subject was presented for subjects with advanced solid malignancies and lymphomas. In addition, descriptive statistics for FDG-PET scans were provided for lymphoma subjects according to revised IWG criteria.

[2] = format: in vivo, human; settings: for maximum tolerated dose (MTD): oral
Description: (§4) Dosage regimen Compound 2 was administered as an oral capsule comprising a pharmaceutically acceptable carrier (diluting agent, plasticizer, disintegrator and lubricant). Compound 2 was administered to the subjects once daily on Days 1 to 21 of a 28-day cycle (QD21/28). An alternative drug administration schedule was considered after establishing the maximum tolerated dose (MTD) of Compound 2 in solid tumor and/or lymphoma subjects using the above schedule, and upon review of the human safety. Subjects were administered Compound 2 in fasting conditions by avoiding food for 2 hours before and 1 hour after drug administration. Dose-escalation of Compound 2 to determine the MTD was guided by the modified continuous reassessment method (mCRM) using a Bayesian logistic regression model (BLRM) following escalation with overdose control (EWOC) principle. Dose escalation began in subjects with advanced solid tumors or lymphomas with a starting dose of Compound 2 at 15 mg/day based on the Highest Non-Severely Toxic Dose (HNSTD) of 3 mg/kg in dogs.
Dose Limiting Toxicity Definition A DLT was defined as any treatment-emergent adverse event (TEAE) not attributable to disease or disease-related processes that occurred during the observation period (Cycle 1) in each dose-level cohort and was grade 3 or higher according to NCI CTCAE, version 4. Subjects who were unable to complete at least 75% of the prescribed doses (i.e., 16 days) of Compound 2 in the first 21 days as a result of nondisease-related≥grade 2 adverse event (AE) were considered to have a DLT.
Treatment Arms In this open-label, single-arm, dose escalation study, each subject received Compound 2 orally once daily on Days 1 to 21 of a 28-day cycle.
Safety Parameters The safety profile was based on AEs, physical examination findings, vital sign measurements, clinical laboratory measurements, and ECG recordings. All subjects receiving at least 1 dose of Compound 2 were included in the safety analyses.

[3] = Highest Non-Severely Toxic Dose in dogs; format: in vivo
Description: as §4

[4] = test system: Non-Liposarcoma; experiment: Phase 1 clinical study: progression free survival, non-liposarcoma subjects; format: in vivo, human; settings: Non-Liposarcoma (N = 14)
Description: as §1, §2, §3

[5] = test system: Liposarcoma; experiment: Phase 1 clinical study: progression free survival, liposarcoma subjects; format: in vivo, human; settings: Liposarcoma (N = 13)
Description: as §1, §2, §3

[6] = Overall (N = 27), Kaplan-Meier estimate

SMILES: CC1(C)CCC2(CC1)N[C@@H](C(=O)N[C@@H]1CC[C@@H](C(N)=O)OC1)[C@H](c1ccnc(Cl)c1F)[C@]21C(=O)Nc2cc(Cl)ccc21.Cc1ccc(S(=O)(=O)O)cc1 [Compound 2, (3′R,4′S,5′R)—N-[(3R,6S)-6-carbamoyltetrahydro-2H-pyran-3-yl]-6″-chloro-4′-(2-chloro-3-fluoropyridin-4-yl)-4,4-dimethyl-2″-oxo-1″,2″-dihydrodispiro[cyclohexane-1,2′-pyrrolidine-3′,3″-indole]-5′-carboxamide mono(4-methylbenzenesulfonate) monohydrate]
- Subjects without Events (Censored) (%) ([1]; Overall (N = 27)): (55.6) %
- Progression-Free Survival, Median [1, 6]: 5.72 months
- Rate (%) of Being Alive Without Progresion at Least 3 months [1, 6]: 74.5%
- Rate (%) of Being Alive Without Progresion at Least 6 months [1, 6]: 47.4%
- Rate (%) of Being Alive Without Progresion at Least 9 months [1, 6]: 29.7%
- Rate (%) of Being Alive Without Progresion at Least 12 months [1, 6]: 29.7%
- Subjects with Events (%) ([1]; PFS events, Overall (N = 27)): (44.4) %
- subjects with stable disease (SD) as the best tumor response ([1]; RECIST v1.1, out of 23 evaluable subjects): 21 subjects
- subjects with >10% tumor shrinkage ([1]; of 23 evaluable subjects): 3 subjects
- TEAE anemia ([2]; human, in vivo): 38.2%
- TEAE constipation ([2]; human, in vivo): 23.5
- TEAE decreased appetite ([2]; human, in vivo): 50.0%
- TEAE diarrhea ([2]; human, in vivo): 35.3%
- TEAE dysgeusia ([2]; human, in vivo): 20.6%
- TEAE dyspnoea ([2]; human, in vivo): 26.5%
- TEAE fatigue ([2]; human, in vivo): 52.9%
- TEAE grade 3 or higher in severity ([2]; human, in vivo): 55.9%
- TEAE hyperglycemia ([2]; human, in vivo): 29.4%
- TEAE hypoalbuminemia ([2]; human, in vivo): 32.4%
- TEAE nausea ([2]; human, in vivo): 64.7%
- TEAE neutropenia ([2]; human, in vivo): 17.6%
- TEAE peripheral edema ([2]; human, in vivo): 17.6%
- TEAE thrombocytopenia ([2]; human, in vivo): 32.4%
- TEAE vomiting ([2]; human, in vivo): 35.3%
- Treatment emergent adverse events (TEAE) of any grade at any treatment cycle irrespective of causality ([2]; human, in vivo): 97.1%
- most common drug-related TEAEs ([2]; human, in vivo): hematological (thrombocytopenia, anemia, neutropenia), gastrointestinal (nausea, vomiting and diarrhea), and fatigue
- total subjects who experienced DLTs ([2]; human, in vivo): 6 subjects
- maximum tolerated dose (MTD) ([2]; QD 21/28 schedule): 120 mg
- maximum tolerated dose (MTD) ([2]; QD 28/28 schedule): 90 mg
- dose tolerated ([2]; patients with hematological malignancies): 160 mg
- Highest Non-Severely Toxic Dose (HNSTD) [3]: 3 mg/kg
- Subjects without Events (Censored) (%) [4]: (35.7) %
- Progression-Free Survival, Median ([4]; Kaplan-Meier estimate): 4.04 months
- Rate (%) of Being Alive Without Progresion at Least 3 months ([4]; Kaplan-Meier estimate): 58.4%
- Rate (%) of Being Alive Without Progresion at Least 6 months ([4]; Kaplan-Meier estimate): 23.4%
- Rate (%) of Being Alive Without Progresion at Least 9 months ([4]; Kaplan-Meier estimate): 11.7%
- Rate (%) of Being Alive Without Progresion at Least 12 months ([4]; Kaplan-Meier estimate): 11.7%
- Subjects with Events (%) ([4]; PFS events): (64.3) %
- Subjects without Events (Censored) (%) [5]: (76.9) %
- Rate (%) of Being Alive Without Progresion at Least 3 months ([5]; Kaplan-Meier estimate): 91.7%
- Rate (%) of Being Alive Without Progresion at Least 6 months ([5]; Kaplan-Meier estimate): 76.4%
- Rate (%) of Being Alive Without Progresion at Least 9 months ([5]; Kaplan-Meier estimate): 57.3%
- Rate (%) of Being Alive Without Progresion at Least 12 months ([5]; Kaplan-Meier estimate): 57.3%
- Subjects with Events (%) ([5]; PFS events): (23.1) %
